Source: ChEMBL document CHEMBL3046208, “Natural and synthetic podolactones with potential use as natural herbicide models” (2000)
Activity calls are given as the source filed them. The calls are words filed in the database; no cut-off is given here.

What was measured:
Format in all cases: functional
Lactuca sativa [1] = assay: Inhibition of root length of Lactuca sativa cv. Roman (lettuce) at 0.1 mM after 5 days relative to untreated control
Triticum aestivum [2] = assay: Inhibition of root length of Triticum aestivum (wheat) at 0.1 mM after 5 days relative to untreated control
Hordeum vulgare [3] = assay: Stimulation of germination of Hordeum vulgare (barley) at 0.1 mM after 5 days relative to untreated control
Lepidium sativum [4] = assay: Stimulation of shoot length of Lepidium sativum at 0.1 mM after 5 days relative to untreated control
Lactuca sativa [5] = assay: Inhibition of germination of Lactuca sativa cv. Nigra (lettuce) at 0.1 mM after 5 days relative to untreated control
Lactuca sativa [6] = assay: Stimulation of shoot length of Lactuca sativa cv. Nigra (lettuce) at 0.1 mM after 5 days relative to untreated control
Lactuca sativa [7] = assay: Inhibition of shoot length of Lactuca sativa cv. Roman (lettuce) at 0.1 mM after 5 days relative to untreated control
Allium cepa [8] = assay: Stimulation of root length of Allium cepa (onion) at 0.1 mM after 5 days relative to untreated control
Lactuca sativa [9] = assay: Inhibition of germination of Lactuca sativa cv. Roman (lettuce) at 0.1 mM after 5 days relative to untreated control
Triticum aestivum [10] = assay: Inhibition of germination of Triticum aestivum (wheat) at 0.1 mM after 5 days relative to untreated control
Lepidium sativum [11] = assay: Stimulation of root length of Lepidium sativum at 0.1 mM after 5 days relative to untreated control
Hordeum vulgare [12] = assay: Stimulation of root length of Hordeum vulgare (barley) at 0.1 mM after 5 days relative to untreated control
Lactuca sativa [13] = assay: Stimulation of root length of Lactuca sativa cv. Roman (lettuce) at 0.1 mM after 5 days relative to untreated control
Solanum lycopersicum [14] = assay: Inhibition of germination of Solanum lycopersicum (tomato) at 0.1 mM after 5 days relative to untreated control
Allium cepa [15] = assay: Inhibition of shoot length of Allium cepa (onion) at 0.1 mM after 5 days relative to untreated control; settings: 120 h
Hordeum vulgare [16] = assay: Stimulation of shoot length of Hordeum vulgare (barley) at 0.1 mM after 5 days relative to untreated control
Solanum lycopersicum [17] = assay: Stimulation of root length of Solanum lycopersicum (tomato) at 0.1 mM after 5 days relative to untreated control
Solanum lycopersicum [18] = assay: Stimulation of root length of Solanum lycopersicum (tomato) at 0.1 uM after 5 days relative to untreated control
Triticum aestivum [19] = assay: Inhibition of shoot length of Triticum aestivum (wheat) at 0.1 mM after 5 days relative to untreated control
Solanum lycopersicum [20] = assay: Stimulation of shoot length of Solanum lycopersicum (tomato) at 0.1 mM after 5 days relative to untreated control
Allium cepa [21] = assay: Stimulation of germination of Allium cepa (onion) at 0.1 mM after 5 days relative to untreated control
Triticum aestivum [22] = assay: Stimulation of germination of Triticum aestivum (wheat) at 0.1 mM after 5 days relative to untreated control
Lactuca sativa [23] = assay: Stimulation of shoot length of Lactuca sativa cv. Roman (lettuce) at 0.1 mM after 5 days relative to untreated control
Solanum lycopersicum [24] = assay: Stimulation of germination of Solanum lycopersicum (tomato) at 0.1 mM after 5 days relative to untreated control
Allium cepa [25] = assay: Stimulation of shoot length of Allium cepa (onion) at 0.1 mM after 5 days relative to untreated control
Lepidium sativum [26] = assay: Inhibition of root length of Lepidium sativum at 0.1 mM after 5 days relative to untreated control; settings: 120 h
Triticum aestivum [27] = assay: Stimulation of shoot length of Triticum aestivum (wheat) at 0.1 mM after 5 days relative to untreated control
Lepidium sativum [28] = assay: Inhibition of germination of Lepidium sativum at 0.1 mM after 5 days relative to untreated control
Hordeum vulgare [29] = assay: Inhibition of root length of Hordeum vulgare (barley) at 0.1 mM after 5 days relative to untreated control; settings: 120 h
Hordeum vulgare [30] = assay: Inhibition of shoot length of Hordeum vulgare (barley) at 0.1 mM after 5 days relative to untreated control; settings: 120 h
Lepidium sativum [31] = assay: Stimulation of germination of Lepidium sativum at 0.1 mM after 5 days relative to untreated control
Lactuca sativa [32] = assay: Inhibition of root length of Lactuca sativa cv. Nigra (lettuce) at 0.1 mM after 5 days relative to untreated control
Solanum lycopersicum [33] = assay: Inhibition of shoot length of Solanum lycopersicum (tomato) at 0.1 mM after 5 days relative to untreated control; settings: 120 h
Allium cepa [34] = assay: Inhibition of root length of Allium cepa (onion) at 0.1 mM after 5 days relative to untreated control
Lactuca sativa [35] = assay: Stimulation of germination of Lactuca sativa cv. Nigra (lettuce) at 0.1 mM after 5 days relative to untreated control
Triticum aestivum [36] = assay: Stimulation of root length of Triticum aestivum (wheat) at 0.1 mM after 5 days relative to untreated control
Lactuca sativa [37] = assay: Stimulation of germination of Lactuca sativa cv. Roman (lettuce) at 0.1 mM after 5 days relative to untreated control
Lactuca sativa [38] = assay: Inhibition of shoot length of Lactuca sativa cv. Nigra (lettuce) at 0.1 mM after 5 days relative to untreated control; settings: 120 h
Solanum lycopersicum [39] = assay: Inhibition of root length of Solanum lycopersicum (tomato) at 0.1 mM after 5 days relative to untreated control; settings: 120 h
Hordeum vulgare [40] = assay: Inhibition of germination of Hordeum vulgare (barley) at 0.1 mM after 5 days relative to untreated control; settings: 120 h
Lepidium sativum [41] = assay: Inhibition of shoot length of Lepidium sativum at 0.1 mM after 5 days relative to untreated control; settings: 120 h
Lactuca sativa [42] = assay: Stimulation of root length of Lactuca sativa cv. Nigra (lettuce) at 0.1 mM after 5 days relative to untreated control
Allium cepa [43] = assay: Inhibition of germination of Allium cepa (onion) at 0.1 mM after 5 days relative to untreated control; settings: 120 h
Solanum lycopersicum [44] = assay: Stimulation of root length of Solanum lycopersicum (tomato) at 1 nM after 5 days relative to untreated control
Allium cepa [45] = assay: Inhibition of germination of Allium cepa (onion) at 10 nM after 5 days relative to untreated control; settings: 120 h
Hordeum vulgare [46] = assay: Inhibition of germination of Hordeum vulgare (barley) at 1 uM after 5 days relative to untreated control; settings: 120 h

`COC(=O)[C@@]1(C)CCC[C@]2(C)c3cc(=O)occ3CC[C@@H]12` was tested, and the inhibition (Lactuca sativa [1]) was “inactive”, the inhibition at 100 µM (Triticum aestivum [2]; 120 h) was less than 20% and the Activity (Hordeum vulgare [3]) was 20%. It also gave an Activity (Lepidium sativum [4]) of less than 20%, an inhibition at 100 µM (Lactuca sativa [5]; 120 h) of less than 20% and an Activity (Lactuca sativa [6]) of less than 20%. The inhibition (Lactuca sativa [7]) was “inactive”, the Activity (Allium cepa [8]) was “inactive” and the inhibition (Lactuca sativa [9]) was “inactive”. The inhibition at 100 µM (Triticum aestivum [10]; 120 h) was less than 20%, the Activity (Lepidium sativum [11]) was 20% and the Activity (Hordeum vulgare [12]) was 20%. For the same compound, the Activity (Lactuca sativa [13]) was “inactive”, the inhibition (Solanum lycopersicum [14]) was “inactive” and the inhibition at 100 µM (Allium cepa [15]) was less than 20%. The Activity (Hordeum vulgare [16]) was less than 20%, the Activity (Solanum lycopersicum [17]) was greater than 40% and the Activity (Solanum lycopersicum [18]) was 58%. The inhibition (Triticum aestivum [19]) was “inactive”, the Activity (Solanum lycopersicum [20]) was less than 20% and the Activity (Allium cepa [21]) was less than 20%. For the same compound, the Activity (Triticum aestivum [22]) was less than 20%, the Activity (Lactuca sativa [23]) was “inactive” and the Activity (Solanum lycopersicum [24]) was “inactive”. The Activity (Allium cepa [25]) was less than 20%, the inhibition at 100 µM (Lepidium sativum [26]) was 20% and the Activity (Triticum aestivum [27]) was “inactive”. For the same compound, the inhibition (Lepidium sativum [28]) was “inactive”, the inhibition at 100 µM (Hordeum vulgare [29]) was 20% and the inhibition at 100 µM (Hordeum vulgare [30]) was less than 20%. The Activity (Lepidium sativum [31]) was “inactive”, the inhibition (Lactuca sativa [32]) was “inactive” and the inhibition at 100 µM (Solanum lycopersicum [33]) was less than 20%. For the same compound, the inhibition (Allium cepa [34]) was “inactive”, the Activity (Lactuca sativa [35]) was less than 20% and the Activity (Triticum aestivum [36]) was less than 20%. The Activity (Lactuca sativa [37]) was “inactive”, the inhibition at 100 µM (Lactuca sativa [38]) was less than 20% and the inhibition at 100 µM (Solanum lycopersicum [39]) was greater than 40%. The inhibition at 100 µM (Hordeum vulgare [40]) was 20%, the inhibition at 100 µM (Lepidium sativum [41]) was less than 20% and the Activity (Lactuca sativa [42]) was “inactive”. The inhibition at 100 µM (Allium cepa [43]) was less than 20%.

For `COC(=O)[C@@]1(C)CCC[C@]2(C)C3=C(CC[C@@H]12)COC(=O)C3`, the inhibition (Lactuca sativa [1]) was “inactive”, the inhibition (Triticum aestivum [2]) was “inactive” and the Activity (Hordeum vulgare [3]) was greater than 40%. For the same compound, the Activity (Lepidium sativum [4]) was less than 20%, the inhibition (Lactuca sativa [5]) was “inactive” and the Activity (Lactuca sativa [6]) was less than 20%. For the same compound, the inhibition at 100 µM (Lactuca sativa [7]; 120 h) was less than 20%, the Activity (Solanum lycopersicum [44]) was 56% and the Activity (Allium cepa [8]) was “inactive”. The inhibition at 100 µM (Lactuca sativa [9]; 120 h) was less than 20%, the inhibition (Triticum aestivum [10]) was “inactive” and the Activity (Lepidium sativum [11]) was less than 20%. The Activity (Hordeum vulgare [12]) was greater than 40%, the Activity (Lactuca sativa [13]) was “inactive” and the inhibition at 0.01 µM (Allium cepa [45]) was -45%. For the same compound, the inhibition at 100 µM (Solanum lycopersicum [14]; 120 h) was less than 20%, the inhibition at 100 µM (Allium cepa [15]) was less than 20% and the Activity (Hordeum vulgare [16]) was greater than 40%. For the same compound, the Activity (Solanum lycopersicum [17]) was greater than 40%, the inhibition (Triticum aestivum [19]) was “inactive” and the Activity (Solanum lycopersicum [20]) was less than 20%. The Activity (Allium cepa [21]) was 20%, the Activity (Triticum aestivum [22]) was “inactive” and the Activity (Lactuca sativa [23]) was less than 20%. It also gave an Activity (Solanum lycopersicum [24]) of less than 20%, an Activity (Allium cepa [25]) of less than 20% and an inhibition at 100 µM (Lepidium sativum [26]) of less than 20%. The Activity (Triticum aestivum [27]) was “inactive”, the inhibition (Lepidium sativum [28]) was “inactive” and the inhibition at 100 µM (Hordeum vulgare [29]) was greater than 40%. For the same compound, the inhibition at 100 µM (Hordeum vulgare [30]) was greater than 40%, the Activity (Lepidium sativum [31]) was “inactive” and the inhibition (Lactuca sativa [32]) was “inactive”. The inhibition at 100 µM (Solanum lycopersicum [33]) was less than 20%, the inhibition (Allium cepa [34]) was “inactive” and the Activity (Lactuca sativa [35]) was “inactive”. The Activity (Triticum aestivum [36]) was “inactive”, the Activity (Lactuca sativa [37]) was less than 20% and the inhibition at 100 µM (Lactuca sativa [38]) was less than 20%. The inhibition at 1 µM (Hordeum vulgare [46]) was -71%, the inhibition at 100 µM (Solanum lycopersicum [39]) was greater than 40% and the inhibition at 100 µM (Hordeum vulgare [40]) was greater than 40%. The inhibition at 100 µM (Lepidium sativum [41]) was less than 20%, the Activity (Lactuca sativa [42]) was “inactive” and the inhibition at 100 µM (Allium cepa [43]) was 20%.
